“Also recorded” adds a separate entry of the source.
Experiments:
wildtype HPAF-II cells = experiment: Dose-response assay (CellTiter-Glo), wildtype HPAF-II cells; type: cell-based; details: FIG. 9
Protocol: (§1) HPAF-II, C33A, SiHa HEK293T cells (ATCC) were grown in DMEM (4.6 g/L D-glucose, L-glutamine)+10% fetal bovine serum+5% Anti-Anti at 37° C. and 5% CO2. Caski cells were grown in RPMI-1640+10% fetal bovine serum+5% Anti-Anti at 37° C. and 5% CO2. For serum starvation, regular growth media was removed, and replaced with DMEM (4.6 g/L D-glucose, L-glutamine)+5% Anti-Anti for 18 h. CHIR99021 was used at 4 nM.
(§2) All cells were seeded in triplicate at 2500 cells/well. The following day, a dose-response treatment of OTS964 (Cayman Chemicals) or AZD6738 (SelleckChem). At 3d and 7d of treatment, respectively cell viability was determined using CellTiter-Glo (Promega) as per manufacturer's instructions.

[1] = test system: Cervical cancer patient-derived cancer organoids; experiment: Viability of patient-derived cervical cancer organoids (Cell Titer Glo); details: 7 days treatment, a subset of organoid models, FIGS. 10 and 11
Protocol: Cervical cancer patient-derived cancer organoids were treated with dose-response of OTS964 for 7 days. Following treatment, organoids were imaged, and viability was measured using Cell Titer Glo.

[2] = test system: C-33-A cells (FBXW7 mutation); experiment: Dose-response assay in cervical cancer cell line panel (Ca-Ski, DoTc2-4510, SiHa, C-33-A); type: cell-based
Protocol: as §1, §2

FBXW7^−/− HPAF-II cells = experiment: Dose-response assay (CellTiter-Glo), FBXW7 knockout HPAF-II cells compared with wildtype; type: cell-based
Protocol: as §1
(§3) HPAF-II mutant cells (APC-truncation, AXIN-knockout, FBXW7-knockout) were transfected via electroporation using the Neon system (Thermo) under the following conditions; 2 μg of DNA (sgRNA construct pX330) 1150V, 30 ms and 2 pulses. Cells were allowed to recover for 2 days before the addition of 100 nM LGK-974 to enrich for mutations driving Wnt pathway activation. Cell lines were validated for editing using TIDE (tracking of insertions and deletions (Brinkman et al 2014).
as §2

HPAF-II cells [3] = experiment: LGK974 treatment of RNF43 mutant HPAF-II cells (proliferation, LD90 dose for CRISPR screen); type: cell-based
From the text: HPAF-II cells harbor a mutation in RNF43 a negative regulator of the Wnt signaling pathway and as a result these cells are exquisitely dependent on the presence of Wnt ligands. […] Genome wide CRISPR-Cas9 screen was used to identify genes underlying PORCN inhibitor sensitivity, specifically, gene knockouts mediating LGK974 resistance. To do this, the RNF43 mutant cell line HPAF-II was transduced with the genome-wide TKO gRNA library and treated with a LD90 dose of the PORCN inhibitor LGK974 (Liu et al 2013). Under these conditions, the vast majority of cells undergo cell cycle arrest, but a few clones bypassed this process and emerged during the selection. Next generation sequencing of the resistant clones identified gRNA targeting several known negative regulators of Wnt signalling—including APC and AXIN1 that re-activated the ßcatenin pathway distal to the receptor complex. […]
HPAF-II cells were infected with the Toronto knockout library version 1 (TKOv1)—a pooled sgRNA lentiviral library (Hart et al2015) at a multiplicity of infection of 0.3, in the presence of 8 μg/ml polybrene (Sigma) for 24 h. […] Sequenced gRNAs were mapped to the TKOv1 library using MaGECK 0.5.3, and read counts were normalized by total reads per sample before averaging biological replicates and determining gRNA enrichment.

HPAF-II cells [4] = experiment: Clonogenic assay of LGK974 sensitivity in HPAF-II wild type and knockout cells; type: cell-based
Protocol: As validation, each of the genes discovered in this LGK974 positive selection screen were knocked-out in HPAF-II cells and the sensitivity to LGK974 was determined using clonogenic assays. The assay tested HPAF-II wild type cells, HPAF-II wild type cells treated with LGK974, HPAF-II cells with the gene APC knocked out and treated with LGK974, HPAF-II cells expressing a degradation resistant mutant (DegR)-ßCatenin and treated with LGK974, HPAF-II cells with the AXIN gene knocked out and treated with LGK974, and HPAF-II cells with the FBXW7 gene knocked out and treated with LGK974.
as §3

CCNL1 = experiment: Western blot of CCNL1 levels after GSK3 inhibitor treatment; type: cell-based; details: CHIR99021 used at 4 nM, FIG. 6
Protocol: Using the methods of Example 8, a co-expression analysis followed by cycloheximide chase illustrated the effect of FBXW7 expression on CCNL1 stability. […] Mutation in the substrate-recognition domain of FBXW7 lead to a robust stabilization of CCNL1 levels.
as §1
All samples were lysed in 4× Laemmli Sample Buffer (50 mM Tris-HCl pH 6.8, 2% SDS, 10% glycerol, 1% β-mercaptoethanol, 12.5 mM EDTA, 0.02% bromophenol blue). Lysates were sonicated, boiled, and centrifuged to pellet insoluble material. Approx 10 μg were loaded per sample on a 4-15% SDS-PAGE Stain-Free TGX BioRad precast gel. Gels were run at 150V for approximately 60 minutes. Gels were transferred to methanol-activated PVDF at 90V for 120 minutes. Membranes were blocked in 5% milk in Tris-buffered Saline (pH 7.4)+1% Tween-20 (TBS-T) for 1 hr, and incubated with corresponding primary antibodies overnight. […]

With Cc1cc(O)c(-c2ccc([C@@H](C)CN(C)C)cc2)c2c1[nH]c(=O)c1sccc12 [OTS964, 9-[4-[(1R)-2-(dimethylamino)-1-methylethyl]phenyl]-8-hydroxy-6-methyl-thieno[2,3-c]quinolin-4(5H)-one] the “dose at which inhibition in wildtype cells was seen (only at the highest dose tested)” value (wildtype HPAF-II cells) was 1 µM, the “relative viability of cervical cancer organoids under OTS964” value [1] was “sensitive” and the “OTS964 dose response in cervical cancer cell line panel” value ([2]; C-33-A vs Ca-Ski, DoTc2-4510, SiHa, FIG. 14A) was “hypersensitive”. For the same compound, the “sensitivity of FBXW7 mutant cells to CDK11 inhibition relative to wildtype” value (FBXW7^−/− HPAF-II cells; FBXW7^−/− vs wildtype HPAF-II cells, proliferation, FIG. 9) was “at least 5 times” and the “proliferation response to OTS964, FBXW7 knockout vs wild type cells” value (FBXW7^−/− HPAF-II cells; HPAF-II, 3d treatment, FIG. 9) was “striking increase in sensitivity; also recorded: hypersensitive”.
In the case of C[C@@H]1COCCN1c1cc(C2([S@](C)(=N)=O)CC2)nc(-c2ccnc3[nH]ccc23)n1 [AZD6738, (R)-imino(methyl)(1-(6-((R)-3-methylmorpholino)-2-(1H-pyrrolo[2,3-b]pyridin-4-yl)pyrimidin-4-yl)cyclopropyl)-I6-sulfanone], the “enhanced activity in C33A compared to Caski and SiHa cell lines” value ([2]; AZD6738, FIG. 15D) is reported as 4-6 fold, the “cell viability under AZD6738 in cervical cancer cell line panel” value ([2]; C33A, FIG. 15D) is reported as “highest susceptibility; also recorded: highly susceptible” and the “cell viability under AZD6738, FBXW7^−/− vs wildtype HPAF-II” value (FBXW7^−/− HPAF-II cells; 7d treatment, FIG. 15B) is reported as “much more susceptible; also recorded: hypersensitivity”.
For Cc1cc(-c2ncc(CC(=O)Nc3ccc(-c4cnccn4)cn3)cc2C)ccn1 [LGK974], the LD90 dose (HPAF-II cells [3]; HPAF-II cells, positive selection screen) was 20 nM, the “effect of LGK974 treatment on HPAF-II cells” value (HPAF-II cells [3]; RNF43 mutant HPAF-II) was “cell cycle arrest and strong inhibition of proliferation” and the “growth under LGK974 after knockout of APC and AXIN1” value (HPAF-II cells [4]; APC and AXIN1 knockout HPAF-II) was “fully rescued the growth”. The “resistance to LGK974 after knockout of FBXW7” value (HPAF-II cells [4]; FBXW7 knockout HPAF-II) was “partial resistance” and the “growth of HPAF-II wildtype cells under LGK974” value (HPAF-II cells [4]; wildtype (RNF43 mutation)) was “robustly arrested the growth”.
With Cc1c[nH]c(-c2cnc(NCCNc3ccc(C#N)cn3)nc2-c2ccc(Cl)cc2Cl)n1 [CHIR99021] the “CCNL1 levels after treatment with GSK3 inhibitor” value (CCNL1) was “increased levels of CCNL1”.

Source: patent US20230042367A1, “METHODS AND COMPOSITIONS FOR TREATING CANCERS HAVING F-BOX AND WD-REPEAT PROTEIN 7 (FBXW7) ALTERATIONS AND/OR CYCLIN L1 (CCNL1) GAIN OR AMPLIFICATION” (THE GOVERNING COUNCIL OF THE UNIVERSITY OF TORONTO, priority 2019, published 2023)
